Laboratory results published in PubChem BioAssay AID248 (DTP/NCI, 2004).
Inconclusive results and toxic doses are left out. Cut-off read from the data, not from the text of the source: active = T/C of 150% or more; inactive = T/C below 125%.

Tested on: L1210 leukemia ip in BDF1 mice, survival T/C
Experiment: NCI In Vivo Anticancer Drug Screen. Data for tumor model L1210 Leukemia (intraperitoneal) in B6D2F1 (BDF1) mice
Details: endpoint: mean survival time, higher = longer survival
Outline: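 Transplanted-tumor mice were given test agent; controls received vehicle only. Survival readings from the two groups were divided (treated over control).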

Measured: T/C

Nc1nc(N)c2c(n1)[n+]([O-])c1ccccc1[n+]2[O-]
inactive: dose: 100.0 mg/kg/injection, schedule: Q01DX001 (ip), vehicle: saline 103 % of control | dose: 200.0 mg/kg/injection, schedule: Q01DX001 (ip), vehicle: saline 103 % of control | dose: 400.0 mg/kg/injection, schedule: Q01DX001 (ip), vehicle: saline 94 % of control

CCNCC
inactive: dose: 100.0 mg/kg/injection, schedule: Q04DX003 (ip), vehicle: saline 93 % of control | dose: 200.0 mg/kg/injection, schedule: Q04DX003 (ip), vehicle: saline 101 % of control | dose: 400.0 mg/kg/injection, schedule: Q04DX003 (ip), vehicle: saline 101 % of control

CCCCSc1cc(C)nc(SCCCC)n1
inactive: dose: 50.0 mg/kg/injection, schedule: Q01DX009 (ip), vehicle: Klucel (hydroxypropylcellulose) (HPC) 101 % of control | dose: 100.0 mg/kg/injection, schedule: Q01DX009 (ip), vehicle: Klucel (hydroxypropylcellulose) (HPC) 101 % of control | dose: 200.0 mg/kg/injection, schedule: Q01DX009 (ip), vehicle: Klucel (hydroxypropylcellulose) (HPC) 101 % of control
